Laboratory results taken from US20130267533A1, “5HT1A AGONISTS FOR TREATMENT OF HIGH CHOLESTEROL” (FABRE-KRAMER PHARMACEUTICALS, INC., priority 2012, published 2013).
Counter-ions that a name gives are not always drawn. Like-named read-outs stand apart in the source and are kept apart here.

Columns and labels:
[1] = pre-clinical tests; cited from earlier work
[2] = Plasma levels of 3-OH gepirone after gepirone treatment; type: in vivo; conditions: animals and humans treated with gepirone
Source text: 3-OH gepirone has the same receptor binding, therefore, it is theorized that 3-OH-gepirone accounts for at least some of the effect noted with gepirone.

[3] = system: post-synaptic receptors in the hippocampus; conditions: cited from earlier work
[4] = system: subjects with anxiety; test: Total cholesterol in random subset of 103 subjects from adatanserin study 790-210; type: in vivo, human
Source text: Adatanserin is another drug with similar properties. The studies done in adatanserin were largely done on anxiety, not depression. It was not known if the cholesterol levels in subjects with anxiety are elevated. (In the small sample studied below, the levels are not elevated). One paper in subjects with panic disorder claims that paroxetine treatment elevated plasma cholesterol (Kim E J, YU B-H, Increased Cholesterol Levels After Paroxetine Treatment in Patients with panic Disorder. J Clinical Psychopharmacol 2005; 25:597-599). However, to see if adatanserin might also have cholesterol lowering properties, the inventors of the present invention examined a random subset of 103 subjects from study 790-210.

[5] = system: subjects with Major Depression; test: Non-fasting total cholesterol at baseline and 8 weeks in 10 clinical studies of Gepirone-ER, meta-analysis; type: in vivo, human; conditions: for cholesterol levels, SSRI vs placebo: paroxetine one study n=143 p=0.045, fluoxetine three studies n=295 p=0.014, FIG. 4
Description: In 10 clinical studies of the antidepressant effects of Gepirone-ER comprised of 2302 subjects with Major Depression safety measurements included non-fasting measurements of cholesterol at baseline and at 8 weeks (endpoint). A JMP-7 one way ANOVA of the data provided results for individual studies which were then analyzed by meta-analysis. […] So, analysis of the effect of gepirone on cholesterol levels in the 40-59 year range was conducted.

[6] = system: MDD subjects over or under 200 mg/dL cholesterol; test: Gepirone-ER antidepressant efficacy (HAMD-17) by cholesterol level, 8 double-blind MDD studies; type: in vivo, human; conditions: for HAMD responders percent: responder = 50% decrease in HAMD-17
Source text: The effects of cholesterol on gepirone-ER efficacy was investigated. […] As such, it was expected that the results for gepirone to be similar to that of Fava. […] Corresponding placebo values were generated as well.
The total population used was 10 times greater than the Fava Study addressed in the background section (Sonawalla S B, Papakostas G I, Petersen T J, Yeung A S, Smith M M, Sickinger A H, Gordon J, Israel J A, Tedlow J R, Lamon-Fava S, Fava M, Elevated cholesterol levels associated with nonresponse to fluoxetine treatment in major depressive disorder. Psychosomatics. 2002; 43:310-6). Using the cutoff value of 200 mg/dL, there were 1264 subjects above 200 mg/dL and 1225 subjects below. […] The respective average cholesterol levels were 234.3±29.7 and 169.9±21.2, similar to the Fava data.
The results there compared by t-test of odds ratio programs. The results for gepirone were examiner in 8 MDD studies. The low cholesterol group treated with gepirone-ER had 41.2% responders compared to the high cholesterol treated group 43.3% responders, a […] favoring the high cholesterol group (p=0.58)(Table 2). When the gepirone ER and placebo groups (Table 2) are compared, the high cholesterol gepirone treated group is 13.6% better than placebo (p=0.002), whereas the difference between the low cholesterol gepirone and placebo group is 0.5%, (p=0.602). However, the over 200 placebo group is 11% less than the under 200 placebo group (p=0.004).

[7] = system: depressed subjects; conditions: open label, cited from earlier work

## c1cnc(N2CCNCC2)nc1 [1-PP, 1-(2-pyrimidinyl)piperazine]
[1]
  antidepressant-like characteristics: did not exhibit antidepressant-like characteristics

## CC1(C)CC(=O)N(CCCCN2CCN(c3ncccn3)CC2)C(=O)C1O (centres unmarked) [3-OH gepirone]
[2]
  plasma levels of metabolite relative to gepirone: greater than that of gepirone
[3]
  type of agonism at post-synaptic receptors: full agonism

## O=C(NCCN1CCN(c2ncccn2)CC1)C12CC3CC(CC(C3)C1)C2 [Adatanserin, N-[2-[4-(2-pyrimidinyl)-1-piperazinyl]ethyl]tricyclo[3.3.1.1^3,7]decane-1-carboxamide]
[4]; adatanserin n=76 vs placebo n=27, p=0.011
  Difference in cholesterol change between adatanserin and placebo: 15.22 mg/dL
[4]; n=76, after treatment
  Total Cholesterol after treatment, mean (SD): 197.46 (44.1) mg/dL
[4]; n=76, at baseline
  Total Cholesterol at baseline, mean (SD): 204.46 (46.4) mg/dL
[4]; n=76, baseline to after treatment
  Change in Total Cholesterol: -7.00 mg/dL

## CC1(C)CC(=O)N(CCCCN2CCN(c3ncccn3)CC2)C(=O)C1 [Gepirone, 4,4-dimethyl-1-[4-[-(2-pyrimidinyl)-1-piperazinyl]-butyl]-2,6-piperidinedione hydrochloride]
[5]; 10 studies, p=0.016, FIG. 6
  average drop in total cholesterol, meta-analysis: 2.8 mg/dL
[5]; of 10 studies
  number of studies with lower total cholesterol levels: 7
[5]; patients in the 40-59 year range, FIG. 7
  change in cholesterol levels: -5 mg/dL
[6]; cholesterol over 200 mg/dL, n=344, p=0.001 vs placebo
  HAMD change from baseline Δ means ± SD: −9.58 ± 7.2
[6]; cholesterol over 200 mg/dL, n=344, p=0.002 vs placebo
  HAMD responders percent: 43.3%
[6]; cholesterol under 200 mg/dL, n=354, p=0.656 vs placebo
  HAMD change from baseline Δ means ± SD: −9.48 ± 7.4
[6]; cholesterol under 200 mg/dL, n=354, p=0.602 vs placebo
  HAMD responders percent: 41.2%
[6]; high cholesterol group (over 200 mg/dL), p=0.002
  difference in responders vs placebo: 13.6%
[6]; high cholesterol group, p=0.001
  HAMD change from baseline, difference in means vs placebo: −1.77 points
[6]; low cholesterol group (under 200 mg/dL), p=0.602
  difference in responders vs placebo: 0.5%
[6]; low cholesterol group, p=0.656
  HAMD change from baseline, standard difference in means vs placebo: −0.02 points
[6]; over 200 vs under 200 mg/dL, p=0.856
  HAMD change from baseline, over vs. under Δ(Δ means): 0.10

## CNCCC(Oc1ccc(C(F)(F)F)cc1)c1ccccc1 (centres unmarked) [fluoxetine]
[5]
  cholesterol levels, SSRI vs placebo: placebo statistically better then fluoxetine
[7]; cholesterol above 200 mg/dL
  response rate (50% decrease from baseline HAMD-17): 46%
[7]; cholesterol below 200 mg/dL
  response rate (50% decrease from baseline HAMD-17): 54%

## Fc1ccc([C@@H]2CCNC[C@H]2COc2ccc3c(c2)OCO3)cc1 [paroxetine]
[5]
  cholesterol levels, SSRI vs placebo: placebo statistically better than paroxetine
